Article PMC5515971, “Utility of spherical human liver microtissues for prediction of clinical drug-induced liver injury” (Archives of Toxicology, 2017)
Read-outs that look alike come from different tables or passages of the source.

Assays:
[1] = cited from earlier work
[2] = cited from earlier work; for P/N (DILI positive / DILI negative): P = DILI severity categories 1, 2 and 3, N = categories 4 and 5; for DILI category: clinical, from literature and product labels
[3] = ref Chen et al 2016 / Chen et al 2011; cited from earlier work
[4] = Clinical DILI severity categorization and DILI pattern; settings: P = DILI severity categories 1, 2 and 3; N = categories 4 and 5
[5] = tested on: primary human hepatocytes (PHH); test: Cytotoxicity (cellular ATP, CellTiter-Glo) in 2D plated primary human hepatocytes, 48 h treatment; format: cell-based; settings: for IC50: Hepatocyte, read-out: Geomean IC50;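 for all read-outs here: 384-well plates, luminescence read-out, normalized to vehicle wells with 1% DMSO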
Procedure: Cryopreserved PHH (lot IZT) were thawed in InVitroGro HT™ thawing media at 37 °C, pelleted, and resuspended. Viable hepatocytes were counted by Trypan blue exclusion and plated in black-walled, BioCoat™ collagen 384-well plates at 13,000 cells/well in InVitroGro CP™ plating media supplemented with 1% Torpedo™ Antibiotic Mix and 5% fetal bovine serum and incubated overnight for 18 h. Cells were then treated with compounds for 48 h diluted in InVitroGro HI™ incubation media containing 1% Torpedo Antibiotic Mix, 10% fetal bovine serum, and 1% DMSO. […] Luminescence was determined on an EnVision™ Muliplate Reader (PerkinElmer, Waltham, MA, USA), and data were normalized to vehicle (1% DMSO) control wells.

[6] = tested on: 3D human liver microtissues (hLiMT); test: Cytotoxicity (cellular ATP, CellTiter-Glo 2.0) in 3D human liver microtissues, 14 day repeat-dose treatment; settings: for IC50: Homo sapiens, 336 h; for classification at 50× MOS threshold: hLiMT 14 days
[7] = tested on: 3D human liver microtissues (hLiMT); test: Cytotoxicity (cellular ATP) in 3D human liver microtissues, 5-6 days treatment; format: cell-based; settings: Homo sapiens; hLiMT, 5/6 days, ATP content; read-out: IC50 SHORT;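 note: Hanging-drop spheroids, seven-point dilution series, re-dosed on day 3, CellTiter-Glo 2.0 luminescence, normalized to 0.5 or 1% DMSO vehicle controls on the same plate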
[8] = human Cmax total, used for IC50/Cmax
[9] = human total plasma Cmax, ref literature values
[10] = Table 1, ref Garside et al. (2014)
[11] = clinical DILI severity category, 1-5
[12] = 2D primary human hepatocytes (lot IZT), 48 h treatment, total cellular ATP content
[13] = Hepatocyte, read-out: Geomean IC50 [µM]
[14] = table S-5, ref Garside et al. 2014
[15] = table S-4, ref Garside et al. 2014

SMILES	Cmax [1, 8] [µM]	Cmax [1, 9] [µM]	P/N (DILI positive / DILI negative) [2]	DILI severity category [2, 10]	DILI severity category [2, 11]	DILI category ([2]; ref Garside et al. 2014)	LTKB DILI classification [3]	P/N (DILI positive / DILI negative) [4]	IC50 [5, 12] [µM]	IC50 [6, 13] [µM]	classification at 50× MOS threshold ([5]; PHH 48 h)	FDA DILI Classification DILI severity score [3]	classification at 50× MOS threshold [6]	IC50 ([5]; Homo sapiens, 48 h) [µM]	DILI severity category [2, 14]	IC50 [7] [µM]	DILI severity category [2, 15]	change of IC50 with prolonged exposure ([6]; hLiMT 14 days versus 5-6 days)	IC50 ([6]; read-out: IC50 LONG) [µM]
CC(C)(C)NCC(O)c1ccc(O)c(CO)c1 (stereo not shown) [Albuterol]	0.08	0.08	N	5: No DILI (N = 25)	5. No DILI	5. No DILI	no DILI concern	N											
NC(CO)C(=O)NNCc1ccc(O)c(O)c1O (stereo not shown) [Benserazide]	3.89	3.89	N	5: No DILI (N = 25)	5. No DILI	5. No DILI		N	> 500	> 62.5									
CN1[C@@H]2CC[C@H]1C[C@@H](OC(c1ccccc1)c1ccccc1)C2 [Benztropine]	0.585	0.59	N	5: No DILI (N = 25)	5. No DILI	5. No DILI	no DILI concern	N			false positive	0	false positive						
CCCCNc1cc(C(=O)O)cc(S(N)(=O)=O)c1Oc1ccccc1 [Bumetanide]	0.0848	0.0848	N	4: Enzyme elevations in clinic (N = 16)	4. Enzyme Elevations in Clinic	4. Enzyme Elevations in Clinic	Ambiguous DILI concern	N	> 10	> 10		3							
O=C1CC2(CCCC2)CC(=O)N1CCCCN1CCN(c2ncccn2)CC1 [Buspirone]	0.01	0.01	N	4: Enzyme elevations in clinic (N = 16)	4. Enzyme Elevations in Clinic	4. Enzyme Elevations in Clinic		N	> 200	163			not						
[H]/N=C(/N)c1ccc(NCc2nc3cc(C(=O)N(CCC(=O)O)c4ccccn4)ccc3n2C)cc1 [Dabigatran]	0.37	0.37	N	4: Enzyme elevations in clinic (N = 16)	4. Enzyme Elevations in Clinic	4. Enzyme Elevations in Clinic		N		> 50				> 25					
C[C@@H]1C[C@H]2[C@@H]3CCC4=CC(=O)C=C[C@]4(C)[C@@]3(F)[C@@H](O)C[C@]2(C)[C@@]1(O)C(=O)CO [Dexamethasone]	0.22	0.22	N	4: Enzyme elevations in clinic (N = 16)	4. Enzyme Elevations in Clinic	4. Enzyme Elevations in Clinic	Ambiguous DILI concern	N	> 100	> 100		3			4. Enzyme Elevations in Clinic				
CC(C)C(=O)Nc1ccc([N+](=O)[O-])c(C(F)(F)F)c1 [Flutamide]	5.4	5.43		1: Severe clinical DILI (N = 23)	1. Severe Clinical DILI	1. Severe Clinical DILI	most DILI concern		73	25.7		8				12.5	1	higher IC50 value	
O=C(NC1CCN(CCc2c[nH]c3ccccc23)CC1)c1ccccc1 [Indoramin]	0.29	0.29	N	5: No DILI (N = 25)	5. No DILI	5. No DILI		N	> 50	> 50									
CC(=O)N1CCN(c2ccc(OCC3COC(Cn4ccnc4)(c4ccc(Cl)cc4Cl)O3)cc2)CC1 (stereo not shown) [Ketoconazole]	11.3	11.3		1: Severe clinical DILI (N = 23)	1. Severe Clinical DILI	1. Severe Clinical DILI	most DILI concern		47.2	4.6		8				8.5	1		
CN(C)C(=N)N=C(N)N [Metformin]	7.74	7.74		3: Low clinical DILI concern (N = 23)	3. Low Clinical DILI Concern	3. Low Clinical DILI Concern	less DILI concern		> 100	> 100		0				100	3		
CN(Cc1cnc2nc(N)nc(N)c2n1)c1ccc(C(=O)N[C@@H](CCC(=O)O)C(=O)O)cc1 [Methotrexate]	5	5		1: Severe clinical DILI (N = 23)	1. Severe Clinical DILI	1. Severe Clinical DILI	most DILI concern		> 100	> 100		3				100	1		
CN(C)C(=O)Oc1cccc([N+](C)(C)C)c1 [Neostigmine]	0.045	0.0448	N	5: No DILI (N = 25)	5. No DILI	5. No DILI		N	> 10	> 10									
Cc1ccccc1C(OCCN(C)C)c1ccccc1 (stereo not shown) [Orphenadrine]	0.74	0.74	N	5: No DILI (N = 25)	5. No DILI	5. No DILI	no DILI concern	N				0			5. No DILI				
C#CCN(C)Cc1ccccc1 [Pargyline]	1	1	N	4: Enzyme elevations in clinic (N = 16)	4. Enzyme Elevations in Clinic	4. Enzyme Elevations in Clinic		N	> 100	> 100					4. Enzyme Elevations in Clinic				
Fc1ccc([C@@H]2CCNC[C@H]2COc2ccc3c(c2)OCO3)cc1 [Paroxetine]	0.2	0.2		2: High clinical DILI concern (N = 23)	2. High Clinical DILI Concern	2. High Clinical DILI Concern	less DILI concern		15.3	12		8				21.3	2		
CN[C@@H]1[C@H](O)[C@H](NC)[C@H]2O[C@@]3(O)C(=O)C[C@@H](C)O[C@H]3O[C@@H]2[C@H]1O [Spectinomycin]	323	323		3: Low clinical DILI concern (N = 23)	3. Low Clinical DILI Concern	3. Low Clinical DILI Concern	Ambiguous DILI concern		> 100	> 100		3				100	3		
CC1=C(/C=C/C(C)=C/C=C/C(C)=C/C(=O)O)C(C)(C)CCC1 [Tretinoin]	1.33	1.33		3: Low clinical DILI concern (N = 23)	3. Low Clinical DILI Concern	3. Low Clinical DILI Concern	Ambiguous DILI concern		> 100	> 17		3				29.2	3		17
Cc1cc(CC(=O)O)n(C)c1C(=O)c1ccc(Cl)cc1 [Zomepirac]	13.7	13.7	N	5: No DILI (N = 25)	5. No DILI	5. No DILI		N	> 1000	> 1000									
